Patent US20140343000A1 (priority 2011, published 2014)

These molecules were tested on recombinant NL4-3 virus (Renilla luciferase in nef, Gag P373S; NLRluc) in MT-2 cells (assay: whole plant or invertebrate). Conditions: Renilla, NL43, luciferase activity in cells infected for 4-5 days with NLRluc recombinants, serial dilutions of inhibitor; class symbols (key in Table 1); read-out: EC50.
Format: cell-based, HIV
Method in brief: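 MT-2 cells in RPMI 1640 with 10% heat-inactivated FBS were infected with the reporter virus, made by transfecting the proviral clone into 293T cells, and cultured 4-5 days with serial inhibitor dilutions. Antiviral activity was quantified from Renilla luciferase activity measured in lysed cells.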

Row | Structure (SMILES) | EC50
1 | C=C(C)[C@@H]1CC[C@]2(NCCN3CCN(C(C)=O)CC3)CC[C@]3(C)[C@H](CC[C@@H]4[C@@]5(C)CC=C(c6ccc(C(=O)O)cc6)C(C)(C)[C@@H]5CC[C@]43C)[C@@H]12 [Example B24, 4-((1R,3aS,5aR,5bR,7aR,11aS,11bR,13aR,13bR)-3a-((2-(4-acetylpiperazin-1-yl)ethyl)amino)-5a,5b,8,8,11a-pentamethyl-1-(prop-1-en-2-yl)-2,3,3a,4,5,5a,5b,6,7,7a,8,11,11a,11b,12,13,13a,13b-octadecahydro-1H-cyclopenta[a]chrysen-9-yl)benzoic acid] | < 100 nM
2 | C=C(C)[C@@H]1CC[C@]2(NCCN3CCN(C(=O)C(=O)N(C)C)CC3)CC[C@]3(C)[C@H](CC[C@@H]4[C@@]5(C)CC=C(c6ccc(C(=O)O)cc6)C(C)(C)[C@@H]5CC[C@]43C)[C@@H]12 [Example B25, 4-((1R,3aS,5aR,5bR,7aR,11aS,11bR,13aR,13bR)-3a-((2-(4-(2-(dimethylamino)-2-oxoacetyl)piperazin-1-yl)ethyl)amino)-5a,5b,8,8,11a-pentamethyl-1-(prop-1-en-2-yl)-2,3,3a,4,5,5a,5b,6,7,7a,8,11,11a,11b,12,13,13a,13b-octadecahydro-1H-cyclopenta[a]chrysen-9-yl)benzoic acid] | < 100 nM
3 | C=C(C)[C@@H]1CC[C@]2(NCCN3CCN(S(=O)(=O)C(C)C)CC3)CC[C@]3(C)[C@H](CC[C@@H]4[C@@]5(C)CC=C(c6ccc(C(=O)O)cc6)C(C)(C)[C@@H]5CC[C@]43C)[C@@H]12 [Example B26, 4-((1R,3aS,5aR,5bR,7aR,11aS,11bR,13aR,13bR)-3a-((2-(4-(isopropylsulfonyl)piperazin-1-yl)ethyl)amino)-5a,5b,8,8,11a-pentamethyl-1-(prop-1-en-2-yl)-2,3,3a,4,5,5a,5b,6,7,7a,8,11,11a,11b,12,13,13a,13b-octadecahydro-1H-cyclopenta[a]chrysen-9-yl)benzoic acid] | < 100 nM
4 | C=C(C)[C@@H]1CC[C@]2(NCCN3CCN(C(C)(C)C)CC3)CC[C@]3(C)[C@H](CC[C@@H]4[C@@]5(C)CC=C(c6ccc(C(=O)O)cc6)C(C)(C)[C@@H]5CC[C@]43C)[C@@H]12 [Example B27, 4-((1R,3aS,5aR,5bR,7aR,11aS,11bR,13aR,13bR)-3a-((2-(4-(tert-butyl)piperazin-1-yl)ethyl)amino)-5a,5b,8,8,11a-pentamethyl-1-(prop-1-en-2-yl)-2,3,3a,4,5,5a,5b,6,7,7a,8,11,11a,11b,12,13,13a,13b-octadecahydro-1H-cyclopenta[a]chrysen-9-yl)benzoic acid] | < 100 nM
5 | C=C(C)[C@@H]1CC[C@]2(NCCN3CCN(C)CC3)CC[C@]3(C)[C@H](CC[C@@H]4[C@@]5(C)CC=C(c6ccc(C(=O)O)cc6)C(C)(C)[C@@H]5CC[C@]43C)[C@@H]12 [Example B28, 4-((1R,3aS,5aR,5bR,7aR,11aS,11bR,13aR,13bR)-5a,5b,8,8,11a-pentamethyl-3a-((2-(4-methylpiperazin-1-yl)ethyl)amino)-1-(prop-1-en-2-yl)-2,3,3a,4,5,5a,5b,6,7,7a,8,11,11a,11b,12,13,13a,13b-octadecahydro-1H-cyclopenta[a]chrysen-9-yl)benzoic acid] | < 100 nM
6 | C=C(C)[C@@H]1CC[C@]2(NCCN3CCN(C(=O)C(=O)N4CCCCC4)CC3)CC[C@]3(C)[C@H](CC[C@@H]4[C@@]5(C)CC=C(c6ccc(C(=O)O)cc6)C(C)(C)[C@@H]5CC[C@]43C)[C@@H]12 [Example B29, 4-((1R,3aS,5aR,5bR,7aR,11aS,11bR,13aR,13bR)-5a,5b,8,8,11a-pentamethyl-3a-((2-(4-(2-oxo-2-(piperidin-1-yl)acetyl)piperazin-1-yl)ethyl)amino)-1-(prop-1-en-2-yl)-2,3,3a,4,5,5a,5b,6,7,7a,8,11,11a,11b,12,13,13a,13b-octadecahydro-1H-cyclopenta[a]chrysen-9-yl)benzoic acid] | < 100 nM
7 | C=C(C)[C@@H]1CC[C@]2(NCCNS(=O)(=O)C(C)C)CC[C@]3(C)[C@H](CC[C@@H]4[C@@]5(C)CC=C(c6ccc(C(=O)O)cc6)C(C)(C)[C@@H]5CC[C@]43C)[C@@H]12 [Example B30, 4-((1R,3aS,5aR,5bR,7aR,11aS,11bR,13aR,13bR)-5a,5b,8,8,11a-pentamethyl-3a-((2-(1-methylethylsulfonamido)ethyl)amino)-1-(prop-1-en-2-yl)-2,3,3a,4,5,5a,5b,6,7,7a,8,11,11a,11b,12,13,13a,13b-octadecahydro-1H-cyclopenta[a]chrysen-9-yl)benzoic acid] | < 100 nM
8 | C=C(C)[C@@H]1CC[C@]2(NCCNS(=O)(=O)C3CC3)CC[C@]3(C)[C@H](CC[C@@H]4[C@@]5(C)CC=C(c6ccc(C(=O)O)cc6)C(C)(C)[C@@H]5CC[C@]43C)[C@@H]12 [Example B31, 4-((1R,3aS,5aR,5bR,7aR,11aS,11bR,13aR,13bR)-3a-((2-(cyclopropanesulfonamido)ethyl)amino)-5a,5b,8,8,11a-pentamethyl-1-(prop-1-en-2-yl)-2,3,3a,4,5,5a,5b,6,7,7a,8,11,11a,11b,12,13,13a,13b-octadecahydro-1H-cyclopenta[a]chrysen-9-yl)benzoic acid] | < 100 nM
9 | C=C(C)[C@@H]1CC[C@]2(NCCN3CCCCS3(=O)=O)CC[C@]3(C)[C@H](CC[C@@H]4[C@@]5(C)CC=C(c6ccc(C(=O)O)cc6)C(C)(C)[C@@H]5CC[C@]43C)[C@@H]12 [Example B32, 4-((1R,3aS,5aR,5bR,7aR,11aS,11bR,13aR,13bR)-3a-((2-(1,1-dioxido-1,2-thiazinan-2-yl)ethyl)amino)-5a,5b,8,8,11a-pentamethyl-1-(prop-1-en-2-yl)-2,3,3a,4,5,5a,5b,6,7,7a,8,11,11a,11b,12,13,13a,13b-octadecahydro-1H-cyclopenta[a]chrysen-9-yl)benzoic acid] | < 100 nM
10 | C=C(C)[C@@H]1CC[C@]2(NCCNS(=O)(=O)CCC)CC[C@]3(C)[C@H](CC[C@@H]4[C@@]5(C)CC=C(c6ccc(C(=O)O)cc6)C(C)(C)[C@@H]5CC[C@]43C)[C@@H]12 [Example B34, 4-((1R,3aS,5aR,5bR,7aR,11aS,11bR,13aR,13bR)-5a,5b,8,8,11a-pentamethyl-1-(prop-1-en-2-yl)-3a-((2-(propylsulfonamido)ethyl)amino)-2,3,3a,4,5,5a,5b,6,7,7a,8,11,11a,11b,12,13,13a,13b-octadecahydro-1H-cyclopenta[a]chrysen-9-yl)benzoic acid] | < 100 nM
11 | C=C(C)[C@@H]1CC[C@]2(NCCN3CCN(S(=O)(=O)CC(C)C)CC3)CC[C@]3(C)[C@H](CC[C@@H]4[C@@]5(C)CC=C(c6ccc(C(=O)O)cc6)C(C)(C)[C@@H]5CC[C@]43C)[C@@H]12 [Example B35, 4-((1R,3aS,5aR,5bR,7aR,11aS,11bR,13aR,13bR)-3a-((2-(4-(isobutylsulfonyl)piperazin-1-yl)ethyl)amino)-5a,5b,8,8,11a-pentamethyl-1-(prop-1-en-2-yl)-2,3,3a,4,5,5a,5b,6,7,7a,8,11,11a,11b,12,13,13a,13b-octadecahydro-1H-cyclopenta[a]chrysen-9-yl)benzoic acid] | < 100 nM
12 | C=C(C)[C@@H]1CC[C@]2(NCCN3CCN(S(=O)(=O)c4cccnc4)CC3)CC[C@]3(C)[C@H](CC[C@@H]4[C@@]5(C)CC=C(c6ccc(C(=O)O)cc6)C(C)(C)[C@@H]5CC[C@]43C)[C@@H]12 [Example B36, 4-((1R,3aS,5aR,5bR,7aR,11aS,11bR,13aR,13bR)-5a,5b,8,8,11a-pentamethyl-1-(prop-1-en-2-yl)-3a-((2-(4-(pyridin-3-ylsulfonyl)piperazin-1-yl)ethyl)amino)-2,3,3a,4,5,5a,5b,6,7,7a,8,11,11a,11b,12,13,13a,13b-octadecahydro-1H-cyclopenta[a]chrysen-9-yl)benzoic acid] | < 100 nM
13 | C=C(C)[C@@H]1CC[C@]2(NCCN3CCN(S(=O)(=O)N(CC)CC)CC3)CC[C@]3(C)[C@H](CC[C@@H]4[C@@]5(C)CC=C(c6ccc(C(=O)O)cc6)C(C)(C)[C@@H]5CC[C@]43C)[C@@H]12 [Example B37, 4-((1R,3aS,5aR,5bR,7aR,11aS,11bR,13aR,13bR)-3a-((2-(4-(N,N-diethylsulfamoyl)piperazin-1-yl)ethyl)amino)-5a,5b,8,8,11a-pentamethyl-1-(prop-1-en-2-yl)-2,3,3a,4,5,5a,5b,6,7,7a,8,11,11a,11b,12,13,13a,13b-octadecahydro-1H-cyclopenta[a]chrysen-9-yl)benzoic acid] | < 100 nM
14 | C=C(C)[C@@H]1CC[C@]2(NCCN3CCN(S(=O)(=O)CCCCl)CC3)CC[C@]3(C)[C@H](CC[C@@H]4[C@@]5(C)CC=C(c6ccc(C(=O)O)cc6)C(C)(C)[C@@H]5CC[C@]43C)[C@@H]12 [Example B38, 4-((1R,3aS,5aR,5bR,7aR,11aS,11bR,13aR,13bR)-3a-((2-(4-((3-chloropropyl)sulfonyl)piperazin-1-yl)ethyl)amino)-5a,5b,8,8,11a-pentamethyl-1-(prop-1-en-2-yl)-2,3,3a,4,5,5a,5b,6,7,7a,8,11,11a,11b,12,13,13a,13b-octadecahydro-1H-cyclopenta[a]chrysen-9-yl)benzoic acid] | < 100 nM

Same assay, conditions: Renilla, NL43, luciferase activity in cells infected for 4-5 days with NLRluc recombinants, serial dilutions of inhibitor; numeric values; read-out: EC50

Row | Structure (SMILES) | EC50
15 | C=C(C)[C@@H]1CC[C@]2(NCCNS(=O)(=O)CC)CC[C@]3(C)[C@H](CC[C@@H]4[C@@]5(C)CC=C(c6ccc(C(=O)O)cc6)C(C)(C)[C@@H]5CC[C@]43C)[C@@H]12 [Example B33, 4-((1R,3aS,5aR,5bR,7aR,11aS,11bR,13aR,13bR)-3a-((2-(ethylsulfonamido)ethyl)amino)-5a,5b,8,8,11a-pentamethyl-1-(prop-1-en-2-yl)-2,3,3a,4,5,5a,5b,6,7,7a,8,11,11a,11b,12,13,13a,13b-octadecahydro-1H-cyclopenta[a]chrysen-9-yl)benzoic acid] | 5 nM
